# Assay results taken from US9399028B2, “Treatment of drug resistant cancer” (ROCKEFELLER UNIVERSITY (THE), priority 2012, dated 2016).
# Test system: B16F10 parental and DTIC-resistant cells
# Experiment: In vitro cell growth in response to dacarbazine
# Format: cell-based, mouse
# Conditions: high-dose DTIC treatment
# From the text: FIG. 31A-I. Activation of LXRβ Suppresses the In Vivo Growth of Melanoma Lines Resistant to Dacarbazine and Vemurafenib. (FIG. 31A) In vitro cell growth by 2.5×10^4 B16F10 parental cells and in vitro-derived B16F10 DTIC-resistant cells in response to varying doses of dacarbazine (DTIC) added to the cell media for 4 days. n=3. (FIG. 31B-FIG. 31D) Tumor growth by 5×10^4 DTIC-sensitive B16F10 parental cells (FIG. 31B) or 5×10^4 DTIC-resistant B16F10 cells (FIG. 31C) subcutaneously injected into C57BL/6-WT mice. Following tumor growth to 5-10 mm3 in volume, mice were treated with dacarbazine (50 mg/kg, i.p., daily) or a control vehicle and randomly assigned to regular chow or a chow supplemented with GW3965 (100 mg/kg). Final day tumor volume measurements are shown in (FIG. 31D). n=8-16 (FIG. 31B), 7-8 (FIG. 31C). (FIG. 31E-FIG. 31F) Tumor growth by DTIC-sensitive MeWo parental cells and in vivo-derived DTIC-resistant MeWo human melanoma cells in response to DTIC or GW3965 treatments. 5×10^5 cells were subcutaneously injected into NOD Scid gamma mice. After formation of tumors measuring 5-10 mm3 in volume, mice were blindedly assigned to a control treatment, a DTIC treatment (50 mg/kg, i.p., administered daily in 5-day cycles with 2-day off-treatment intervals), or a GW3965-supplemented diet treatment (100 mg/kg). Final day tumor measurements are show in (FIG. 31F). n=6-8. […]
smiles,measurement,value
CN(C)/N=N/c1[nH]cnc1C(N)=O [dacarbazine],increase in viability of DTIC-resistant cells compared to parental B16F10,7 fold
